Values quoted from earlier work as cited in patent US7638299B2, “Biosynthetic polypeptides utilizing non-naturally encoded amino acids” (Ambrx, Inc., priority 2004, dated 2009).
Read-outs that look alike come from different tables or passages of the source. No end group written: not given here.

What was measured:
NIDDM patients = details: 4 ng/kg/min intravenously, continuously for one week
[1] = humans
[2] = Kreymann et al., 1987
[3] = administered subcutaneously
GLP-1 receptor = target: T1, GLP-1 receptor (Rattus norvegicus, UniProt P32301); details: rats
T1 construct: host or cells: live rats (endogenous receptor)
T1 sequence (P32301 22-463): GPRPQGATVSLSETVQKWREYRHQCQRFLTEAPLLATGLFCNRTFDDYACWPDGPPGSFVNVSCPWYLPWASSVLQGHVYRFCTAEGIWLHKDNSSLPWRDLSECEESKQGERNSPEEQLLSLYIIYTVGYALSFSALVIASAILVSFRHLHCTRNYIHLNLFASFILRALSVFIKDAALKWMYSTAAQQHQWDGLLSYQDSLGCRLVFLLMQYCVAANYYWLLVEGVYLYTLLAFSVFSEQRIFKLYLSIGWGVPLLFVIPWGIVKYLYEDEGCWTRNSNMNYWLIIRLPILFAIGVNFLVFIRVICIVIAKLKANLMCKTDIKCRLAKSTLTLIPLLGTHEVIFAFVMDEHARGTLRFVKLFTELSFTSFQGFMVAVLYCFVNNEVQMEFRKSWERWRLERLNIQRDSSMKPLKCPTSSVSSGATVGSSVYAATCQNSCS

[4] = in vitro studies and in animals
[5] = U.S. Pat. No. 5,118,666
[6] = stored at 4° C. (Mojsov)
[7] = intraventricular administration

GLP-1: product of the proglucagon gene, gut incretin hormone
glycaemic control (NIDDM patients): dramatically improve glycaemic control | side effects (NIDDM patients): without significant side effects | food intake (food intake in rats; acute, peripheral administration): does not inhibit food intake acutely | food intake (food intake in rats; [7]): profoundly inhibits food intake | plasma half-life [1]: 2 min | half-life of circulating GLP-1 [2]: about 4 minutes

GLP-1(7-36) amide: SEQ ID NO: 1; His-Ala-Glu-Gly-...-Lys-Gly-Arg-X wherein X is NH2 (HAEGTFTSDVSSYLEGQAAKEFIAWLVKGR-NH2; listed as Homo sapiens)
time action [3]: about 50 minutes

N-terminally extended GLP-1 (PG 72-107)amide: N-terminally extended GLP-1, proglucagon 72-107 amide (QDFVQWLMNTKRNRNNIAKRHDEFERHAEGTFTSDV-NH2; UniProt P01275 72-107, looked up, fragment)
food intake (food intake in rats; [7]): inactive

exendin 9-39
antagonism of the GLP-1 effect on food intake (food intake in rats; appropriate doses of the GLP-1 antagonist): abolish the effects of GLP-1 | incretin effect elicited by oral glucose (GLP-1 receptor): dramatically reduces the incretin effect

enfuvirtide
inhibition of HIV-1 mediated CD-4+ cell-cell fusion (syncytial formation) and infection of CD-4+ cells by cell-free virus (HIV-1): potent inhibitor | toxicity [4]: non-toxic

GLP-1(7-37): SEQ ID NO: 2; His-Ala-Glu-Gly-...-Lys-Gly-Arg-X wherein X is Gly
biological half-life [5]: 3 to 5 minutes | serum half-life [5]: 3 to 5 min | appearance of by-products on storage [6]: have been found as early as eleven months after sample preparation

PYY: thirty six amino acid long peptide secreted by endocrine cells of the distal gastrointestinal tract
appetite and food intake (lean and obese subjects; administered intravenously, lean and obese subjects): suppresses appetite and food intake | oral activity (lean and obese subjects; oral, low absorption and rapid degradation in the gastrointestinal tract): negligible
